In brackets after ≈: the same amount, converted by molar mass.
What was measured:
Assay in all cases: MIC, broth microdilution
Type in all cases: cell-based
[1] = system: PREC1; settings: Escherichia coli, MHB, 1 × 10^6 CFU/ml, 16–18 h, 37°C, independent triplicates
Method: (§1) The MIC of BMAP‐27B and other antibiotics was determined using the broth microdilution method, following the guidelines established by the Clinical and Laboratory Standards Institute (CLSI). Briefly, the bacterial cultures were grown to the logarithmic growth phase and subsequently diluted in Mueller–Hinton broth (MHB) to achieve a final concentration of 1 × 10^6 CFU/ml. BMAP‐27B and the other antibiotics were prepared in twofold serial dilutions in MHB and mixed with an equal volume of bacterial suspension in 96‐well polypropylene microtiter plates.

[2] = system: CRAB1; settings: Acinetobacter baumannii, MHB, 1 × 10^6 CFU/ml, 16–18 h, 37°C, independent triplicates
Method: as §1

[3] = system: CREC1; settings: Escherichia coli, MHB, 1 × 10^6 CFU/ml, 16–18 h, 37°C, independent triplicates
Method: as §1

[4] = system: CREC2; settings: Escherichia coli, MHB, 1 × 10^6 CFU/ml, 16–18 h, 37°C, independent triplicates
Method: as §1

[5] = system: CREC6; settings: Escherichia coli, MHB, 1 × 10^6 CFU/ml, 16–18 h, 37°C, independent triplicates
Method: as §1

[6] = system: S. aureus ATCC; settings: Staphylococcus aureus, MHB, 1 × 10^6 CFU/ml, 16–18 h, 37°C, independent triplicates
Method: as §1

[7] = system: CRCB3; settings: Citrobacter, MHB, 1 × 10^6 CFU/ml, 16–18 h, 37°C, independent triplicates
Method: as §1

[8] = system: PREC2; settings: Escherichia coli, MHB, 1 × 10^6 CFU/ml, 16–18 h, 37°C, independent triplicates
Method: as §1

[9] = system: CRAB2; settings: Acinetobacter baumannii, MHB, 1 × 10^6 CFU/ml, 16–18 h, 37°C, independent triplicates
Method: as §1

[10] = system: P. aeruginosa UCBPP-PA01; settings: Pseudomonas aeruginosa, UCBPPPA01, MHB, 1 × 10^6 CFU/ml, 16–18 h, 37°C, independent triplicates
Method: as §1

[11] = system: CREC7; settings: Escherichia coli, MHB, 1 × 10^6 CFU/ml, 16–18 h, 37°C, independent triplicates
Method: as §1

[12] = system: En. faecium (Clinical; MDR; pig, faeces), upper row; settings: Enterococcus faecium, En. faecium clinical MDR isolate, MHB, 16–18 h, 37°C, independent triplicates
Method: as §1

[13] = system: CREC3; settings: Escherichia coli, MHB, 1 × 10^6 CFU/ml, 16–18 h, 37°C, independent triplicates
Method: as §1

[14] = system: PREC3; settings: Escherichia coli, MHB, 1 × 10^6 CFU/ml, 16–18 h, 37°C, independent triplicates
Method: as §1

[15] = system: CREC4; settings: Escherichia coli, MHB, 1 × 10^6 CFU/ml, 16–18 h, 37°C, independent triplicates
Method: as §1

[16] = system: CRCB1; settings: Citrobacter, MHB, 1 × 10^6 CFU/ml, 16–18 h, 37°C, independent triplicates
Method: as §1

[17] = system: CRKP6; settings: Klebsiella pneumoniae, MHB, 1 × 10^6 CFU/ml, 16–18 h, 37°C, independent triplicates
Method: as §1

[18] = system: PRCB1; settings: Citrobacter, MHB, 1 × 10^6 CFU/ml, 16–18 h, 37°C, independent triplicates
Method: as §1

[19] = system: CRKP1; settings: Klebsiella pneumoniae, MHB, 1 × 10^6 CFU/ml, 16–18 h, 37°C, independent triplicates
Method: as §1

[20] = system: CRKP2; settings: Klebsiella pneumoniae, MHB, 1 × 10^6 CFU/ml, 16–18 h, 37°C, independent triplicates
Method: as §1

[21] = system: En. faecium (Clinical; MDR; pig, faeces), lower row; settings: Enterococcus faecium, En. faecium clinical MDR isolate, MHB, 16–18 h, 37°C, independent triplicates
Method: as §1

[22] = system: CRKP3; settings: Klebsiella pneumoniae, MHB, 1 × 10^6 CFU/ml, 16–18 h, 37°C, independent triplicates
Method: as §1

[23] = system: P. aeruginosa UCBPP-PA14; settings: Pseudomonas aeruginosa, MHB, 1 × 10^6 CFU/ml, 16–18 h, 37°C, independent triplicates
Method: as §1

[24] = system: CRKP5; settings: Klebsiella pneumoniae, MHB, 1 × 10^6 CFU/ml, 16–18 h, 37°C, independent triplicates
Method: as §1

[25] = system: Salmonella SL1344; settings: MHB, 1 × 10^6 CFU/ml, 16–18 h, 37°C, independent triplicates
Method: as §1

[26] = system: CRKP4; settings: Klebsiella pneumoniae, MHB, 1 × 10^6 CFU/ml, 16–18 h, 37°C, independent triplicates
Method: as §1

[27] = system: CRCB2; settings: Citrobacter, MHB, 1 × 10^6 CFU/ml, 16–18 h, 37°C, independent triplicates
Method: as §1

[28] = system: CREC5; settings: Escherichia coli, MHB, 1 × 10^6 CFU/ml, 16–18 h, 37°C, independent triplicates
Method: as §1

SMILES	MIC [1] [µg/mL]	MIC [2] [µg/mL]	MIC [3] [µg/mL]	MIC [4] [µg/mL]	MIC [5] [µg/mL]	MIC [6] [µg/mL]	MIC [7] [µg/mL]	MIC [8] [µg/mL]	MIC [9] [µg/mL]	MIC [10] [µg/mL]	MIC [11] [µg/mL]	MIC [12] [µg/mL]	MIC [13] [µg/mL]	MIC [14] [µg/mL]	MIC [15] [µg/mL]	MIC [16] [µg/mL]	MIC [17] [µg/mL]	MIC [21] [µg/mL]	MIC [23] [µg/mL]	MIC [25] [µg/mL]	other results
NCC[C@H](O)C(=O)N[C@@H]1C[C@H](N)[C@@H](O[C@H]2O[C@H](CN)[C@@H](O)[C@H](O)[C@H]2O)[C@H](O)[C@H]1O[C@H]1O[C@H](CO)[C@@H](O)[C@H](N)[C@H]1O [AMK, amikacin]	2 (≈ 3.42 µM)	> 32	2 (≈ 3.42 µM)	4 (≈ 6.83 µM)	16 (≈ 27.3 µM)	8 (≈ 13.7 µM)	8 (≈ 13.7 µM)	8 (≈ 13.7 µM)	> 32	2 (≈ 3.42 µM)	2 (≈ 3.42 µM)	16 (≈ 27.3 µM)	2 (≈ 3.42 µM)	2 (≈ 3.42 µM)	4 (≈ 6.83 µM)	4 (≈ 6.83 µM)	–	–	–	–	–
CN(C)[C@@H]1C(O)=C(C(N)=O)C(=O)[C@@]2(O)C(O)=C3C(=O)c4c(O)cccc4[C@@](C)(O)[C@H]3C[C@@H]12 [TET, tetracycline]	> 32	> 32	> 32	> 32	> 32	< 1	> 32	> 32	> 32	16 (≈ 36 µM)	> 32	> 32	> 32	> 32	> 32	> 32	32 (≈ 72 µM)	> 32	16 (≈ 36 µM)	4 (≈ 9 µM)	MIC [18]: > 32 µg/mL; MIC [19]: > 32 µg/mL; MIC [20]: > 32 µg/mL; MIC [22]: > 32 µg/mL; MIC [24]: > 32 µg/mL; MIC [26]: > 32 µg/mL; MIC [27]: > 32 µg/mL; MIC [28]: > 32 µg/mL
C[C@@H](O)[C@H]1C(=O)N2C(C(=O)O)=C(SCCN=CN)C[C@H]12 [IMP, imipenem]	< 1	> 32	> 32	> 32	32 (≈ 107 µM)	< 1	8 (≈ 26.7 µM)	< 1	> 32	< 1	32 (≈ 107 µM)	> 32	32 (≈ 107 µM)	< 1	> 32	> 32	4 (≈ 13.4 µM)	> 32	4 (≈ 13.4 µM)	< 1	MIC [18]: < 1 µg/mL; MIC [19]: 32 µg/mL (≈ 107 µM); MIC [20]: 32 µg/mL (≈ 107 µM); MIC [22]: > 32 µg/mL; MIC [24]: 4 µg/mL (≈ 13.4 µM); MIC [26]: 16 µg/mL (≈ 53.4 µM); MIC [27]: 32 µg/mL (≈ 107 µM); MIC [28]: 32 µg/mL (≈ 107 µM)
CNC(C)C1CCC(N)C(OC2C(N)CC(N)C(OC3OCC(C)(O)C(NC)C3O)C2O)O1 (centres unmarked) [GEN, gentamicin]	> 32	> 32	> 32	> 32	> 32	2 (≈ 4.19 µM)	–	> 32	> 32	–	–	8 (≈ 16.8 µM)	> 32	2 (≈ 4.19 µM)	> 32	–	–	32 (≈ 67 µM)	2 (≈ 4.19 µM)	4 (≈ 8.38 µM)	–
CC1(C)S[C@@H]2[C@H](NC(=O)[C@H](N)c3ccccc3)C(=O)N2[C@H]1C(=O)O [AMP, ampicillin]	> 32	> 32	> 32	> 32	> 32	4 (≈ 11.4 µM)	> 32	> 32	> 32	> 32	> 32	32 (≈ 91.6 µM)	> 32	> 32	> 32	> 32	> 32	> 32	> 32	8 (≈ 22.9 µM)	MIC [18]: > 32 µg/mL; MIC [19]: > 32 µg/mL; MIC [20]: > 32 µg/mL; MIC [22]: > 32 µg/mL; MIC [24]: > 32 µg/mL; MIC [26]: > 32 µg/mL; MIC [27]: > 32 µg/mL; MIC [28]: > 32 µg/mL
CC(C)(O/N=C(\C(=O)N[C@@H]1C(=O)N2C(C(=O)[O-])=C(C[n+]3ccccc3)CS[C@H]12)c1csc(N)n1)C(=O)O [CAZ, ceftazidime]	> 32	> 32	> 32	> 32	> 32	4 (≈ 7.32 µM)	> 32	> 32	> 32	2 (≈ 3.66 µM)	> 32	> 32	> 32	16 (≈ 29.3 µM)	> 32	> 32	> 32	> 32	2 (≈ 3.66 µM)	< 1	MIC [18]: > 32 µg/mL; MIC [19]: > 32 µg/mL; MIC [20]: > 32 µg/mL; MIC [22]: > 32 µg/mL; MIC [24]: > 32 µg/mL; MIC [26]: > 32 µg/mL; MIC [27]: > 32 µg/mL; MIC [28]: > 32 µg/mL

From paper PMC12207908, “The broad‐spectrum antimicrobial peptide BMAP‐27B potentiates carbapenems against NDM‐producing pathogens in food animals” (mLife, 2025)
